Experimental data from patent US20050222253A1, “Anti-cancer nitro- and thia-fatty acids” (priority 1999, published 2005).
Entries after “also recorded” stand apart in the source; their conditions may differ.

Experiments:
15-LO [1] = molecular target: T1, 15-LO (Glycine max, UniProt P08170); experiment: Effect on 15-LO catalysed oxidation of arachidonic acid; type: biochemical, soybean; conditions: preliminary experiment, result in words
T1 construct: purchased Sigma Chemical Company
T1 sequence (P08170 1-839): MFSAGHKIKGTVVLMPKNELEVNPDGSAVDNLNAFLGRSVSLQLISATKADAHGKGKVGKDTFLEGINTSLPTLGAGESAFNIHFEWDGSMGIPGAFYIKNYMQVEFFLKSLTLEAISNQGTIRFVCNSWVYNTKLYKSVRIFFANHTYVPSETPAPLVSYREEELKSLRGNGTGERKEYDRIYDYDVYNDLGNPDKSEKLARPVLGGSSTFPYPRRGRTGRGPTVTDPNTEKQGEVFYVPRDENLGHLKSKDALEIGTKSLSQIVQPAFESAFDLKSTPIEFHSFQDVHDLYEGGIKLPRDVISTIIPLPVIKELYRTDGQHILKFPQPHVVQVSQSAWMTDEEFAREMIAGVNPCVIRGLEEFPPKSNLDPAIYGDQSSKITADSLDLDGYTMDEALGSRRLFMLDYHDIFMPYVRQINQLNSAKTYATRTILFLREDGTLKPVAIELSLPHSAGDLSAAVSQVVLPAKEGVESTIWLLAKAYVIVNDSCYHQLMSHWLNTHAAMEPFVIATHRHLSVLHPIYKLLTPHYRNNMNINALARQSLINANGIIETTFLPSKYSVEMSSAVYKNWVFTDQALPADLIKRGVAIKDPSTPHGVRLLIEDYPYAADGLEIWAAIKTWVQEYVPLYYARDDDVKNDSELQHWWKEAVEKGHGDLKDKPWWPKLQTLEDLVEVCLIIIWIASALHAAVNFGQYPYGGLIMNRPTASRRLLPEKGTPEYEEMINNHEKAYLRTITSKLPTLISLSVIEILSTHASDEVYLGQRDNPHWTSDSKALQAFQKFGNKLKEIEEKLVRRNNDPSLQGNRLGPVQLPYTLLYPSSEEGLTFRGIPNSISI

5-LO [2] = molecular target: T2, 5-LO (Solanum tuberosum, UniProt P37831); experiment: 5-LO catalysed oxidation of the nitro compounds (substrate test); type: biochemical; conditions: pH 6.3 buffer, 234 nm
Protocol: (§1) Based on this consideration, 5-LO, 12-LO and 15-LO catalysed oxidation of the nitro compounds (4a, 4b, 6a, 6b, 8a and 8b) was investigated. Each of the nitro compounds was treated with 15-LO in pH 9.0 buffer (or 5-LO in pH 6.3 buffer and 12-LO in pH 7.4 buffer), and the formation of 15-hydroperoxy derivatives (or 5-hydroperoxy or 12-hydroperoxy derivatives) over time was monitored by LW spectroscopy at 234 nm.

12-LO [3] = molecular target: T3, 12-LO (Sus scrofa, UniProt P16469); experiment: 12-LO catalysed oxidation of the nitro compounds (substrate test); type: biochemical, porcine; conditions: pH 7.4 buffer, 234 nm
T3 construct: purchased Cayman Chemical Company
T3 sequence (P16469 1-663): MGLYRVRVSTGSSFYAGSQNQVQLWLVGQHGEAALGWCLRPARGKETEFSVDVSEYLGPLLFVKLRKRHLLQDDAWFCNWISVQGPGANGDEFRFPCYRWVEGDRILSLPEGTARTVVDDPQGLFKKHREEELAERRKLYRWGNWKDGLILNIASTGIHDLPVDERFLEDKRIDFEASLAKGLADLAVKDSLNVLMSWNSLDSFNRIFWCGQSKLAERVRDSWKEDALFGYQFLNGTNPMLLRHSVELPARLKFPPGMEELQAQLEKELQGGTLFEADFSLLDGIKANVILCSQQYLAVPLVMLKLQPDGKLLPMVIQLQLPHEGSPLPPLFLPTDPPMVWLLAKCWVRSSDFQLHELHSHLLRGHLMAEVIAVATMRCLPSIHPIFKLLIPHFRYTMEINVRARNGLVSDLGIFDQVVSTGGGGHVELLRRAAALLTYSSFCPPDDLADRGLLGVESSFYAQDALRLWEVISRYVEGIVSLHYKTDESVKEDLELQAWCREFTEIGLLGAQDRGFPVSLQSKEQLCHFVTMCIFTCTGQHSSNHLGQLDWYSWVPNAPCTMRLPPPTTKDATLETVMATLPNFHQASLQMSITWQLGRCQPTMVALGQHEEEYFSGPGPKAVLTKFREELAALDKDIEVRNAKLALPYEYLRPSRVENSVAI
Protocol: as §1

MCF-7 cells = experiment: Killing of MCF-7 breast cancer cells in vitro; type: cell-based, human; conditions: in vitro (FIG. 7); compared with 20:4n-6 toxicity
Excerpt: While interference with 5-LOX or 12-LOX activity individually impacts on growth rates of human breast cancer MCF-7 cells^(55,56), the simultaneous modification of the activities of both enzymes at once may cause death. […] Lx4, a nitroso-compound with the same number of carbon atoms and degree of unsaturation as Lx9 but lacking a COOH group, was ineffective (FIG. 7).

12-LO [4] = molecular target: T3, 12-LO; experiment: Effect on 12-LO catalysed oxidation of arachidonic acid; type: biochemical, porcine; conditions: preliminary experiment; result in words
Protocol: as §1
A number of Lx compounds were tested for anti 5-LOX and 12-LOX activities in the human breast cancer cell line, MCF-7. […] The ability of 5-LOX and 12-LOX to produce oxidated products of 20:4n-6 with a different absorption wavelength in the presence of nitroso-PUFA was examined and is shown in the progress curves in FIG. 6. […] Within cells, activation of 5-LOX is facilitated by 5-LOX activating protein (FLAP). Thus, in intact cells, Lx7 and Lx9 may be able to activate 5-LOX at lower concentrations than those required in the purified enzyme system shown in FIG. 6. […] By being able to activate 5-LOX and suppress 12-LOX, these compounds have the desired characteristics of anti-breast cancer agents as discussed previously.
(§2) 15-LO was obtained from Sigma Chemical Company, and 12-LO from Cayman Chemical Company. Arachidonic acid 1, linolenyl alcohol 57a, gamma linolenyl alcohol 5b, arachidonyl alcohol 57c and docosahexaenyl alcohol 57d were purchased from Nu-Chek Prep. Inc. Elysian, Minn., USA. Other chemicals were commercially available from Aldrich Chemical Company.

15-LO [5] = molecular target: T1, 15-LO; experiment: 15-LO catalysed oxidation of the nitro compounds (substrate test); type: biochemical, soybean; conditions: pH 9.0 buffer, 234 nm
Protocol: as §1

5-LO [6] = molecular target: T2, 5-LO; experiment: Effect on 5-LO catalysed oxidation of arachidonic acid; type: biochemical; conditions: preliminary experiment; purified enzyme; result in words
Protocol: Based on this consideration, 5-LO, 12-LO and 15-LO catalysed oxidation of the nitro compounds (4a, 4b, 6a, 6b, 8a and 8b) was investigated. Each of the nitro compounds was treated with 15-LO in pH 9.0 buffer (or 5-LO in pH 6.3 buffer and 12-LO in pH 7.4 buffer), and the formation of 15-hydroperoxy derivatives (or 5-hydroperoxy or 12-hydroperoxy derivatives) over time was monitored by LW spectroscopy at 234 nm. […]

15-LO [7] = molecular target: T1, 15-LO; experiment: Effect on 15-LO catalysed oxidation of arachidonic acid; type: biochemical, soybean; conditions: varying concentrations of compound
Protocol: as §1
The inhibitor constant (Ki or KI) of compound 8a was also determined.
as §2

PARP = PARP cleavage by Western blot in DU145 cells; type: cell-based, human; conditions: 18 h, anti PARP antibody (FIG. 5C)
Protocol: (§3) DU145 cells were treated with PUFA and incubated for 24 h (for the proliferation assay), 4 h (for the caspase assay) and for 18 h (for PARP cleavage).
(§4) Proliferation was quantitated by MTS assay. Caspases 3 and 7 were assayed by a fluorometric assay using a […] substrate. PARP cleavage was measured by Western blots using an anti PARP antibody.

DU145 cells = experiment: DU145 tumour cell survival (MTS cell proliferation assay); type: cell-based, human; conditions: 24 h, MTS assay (FIG. 5A)
Protocol: Lx compounds were tested for activity against two androgen insensitive prostate cancer tumour cell lines, DU145(liver metastases) and PC3(brain metastases). […] Survival was measured using the MTS cell proliferation assay.
Various concentrations for varying amounts of time of Lx compounds were added to either DU145 or PC3 tumour cells in culture. Viability/death of tumour cells was measured by a standard colourimetric assay. […] It is also evident from the results (FIG. 2) that the saturated nitro compound Lx1 (19:0-NO2) is not active and neither is MP2 (β-thia 23:0), a saturated […] fatty acid. […] In a further screening test, the human prostate cell line, DU145 cells (liver metastases), was treated for 24 hrs with 20 μM Fatty Acid and cell survival was measured using the MTS cell proliferation assay. This assay uses colourimetric measurement of substrate conversion to formazan which occurs only in the presence of NADH in a metabolically active cell. There was varied anti-tumour activity amongst the different types of PUFA.
as §3, §4

Caspases 3 and 7 = experiment: Caspase 3 and 7 fluorometric assay in DU145 cells; type: cell-based, human
Protocol: as §3, §4

[8] = listed as (all-Z)-1-nitrotricosa-8,11,14,17-tetraenoic acid

T2 sequence (P37831 whole entry): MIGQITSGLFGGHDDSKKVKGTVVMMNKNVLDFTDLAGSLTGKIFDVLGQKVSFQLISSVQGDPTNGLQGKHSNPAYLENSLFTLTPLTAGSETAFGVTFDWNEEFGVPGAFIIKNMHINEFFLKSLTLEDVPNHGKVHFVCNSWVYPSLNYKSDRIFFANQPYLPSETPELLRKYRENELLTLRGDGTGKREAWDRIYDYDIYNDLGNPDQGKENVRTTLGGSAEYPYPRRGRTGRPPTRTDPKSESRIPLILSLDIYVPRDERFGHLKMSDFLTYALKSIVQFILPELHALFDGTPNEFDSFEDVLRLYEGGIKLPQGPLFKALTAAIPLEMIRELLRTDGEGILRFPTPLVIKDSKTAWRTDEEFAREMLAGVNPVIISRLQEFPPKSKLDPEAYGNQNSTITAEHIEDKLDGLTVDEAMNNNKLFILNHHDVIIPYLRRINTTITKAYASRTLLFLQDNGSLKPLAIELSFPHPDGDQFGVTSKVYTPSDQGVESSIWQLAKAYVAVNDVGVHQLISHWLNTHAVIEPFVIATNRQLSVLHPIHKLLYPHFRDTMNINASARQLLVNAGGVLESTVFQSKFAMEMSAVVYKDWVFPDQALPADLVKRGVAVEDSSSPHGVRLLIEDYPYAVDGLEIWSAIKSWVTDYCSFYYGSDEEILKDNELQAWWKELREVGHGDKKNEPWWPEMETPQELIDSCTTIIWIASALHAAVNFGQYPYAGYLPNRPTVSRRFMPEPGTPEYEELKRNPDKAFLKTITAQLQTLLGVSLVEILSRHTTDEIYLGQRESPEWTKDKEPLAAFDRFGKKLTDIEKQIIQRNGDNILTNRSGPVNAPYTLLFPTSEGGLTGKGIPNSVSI

CCCCC/C=C\C/C=C\C/C=C\C/C=C\CCCC(CCC(=O)O)[N+](=O)[O-] (stereo not drawn) [Lx7, (all-Z)-4-Nitrotricosa-8,11,14,17-tetraenoic acid]
Effect on 15-LO catalysed oxidation of AA (15-LO [1]): Substrate | Substrate for 5-LO (formation of 5-hydroperoxy derivative) (5-LO [2]): not for 5-LO | Substrate for 12-LO (formation of 12-hydroperoxy derivative) (12-LO [3]): substrate for 12-LOX | Substrate for 12-LO (formation of 12-hydroperoxy derivative) (12-LO [3]; listed as 6b): served as a substrate | Substrate for 12-LO (formation of 12-hydroperoxy derivative) (12-LO [3]; [8]): good substrate | Killing of MCF-7 tumour cells (MCF-7 cells): kill these tumour cells | Effect on 12-LO catalysed oxidation of AA (12-LO [4]): Substrate | Substrate for 15-LO (formation of 15-hydroperoxy derivative) (15-LO [5]; listed as 6b): served as a substrate | Substrate for 15-LO (formation of 15-hydroperoxy derivative) (15-LO [5]; [8]): good substrate; also recorded: comparable to that of arachidonic acid | Effect on 5-LO catalysed oxidation of AA (5-LO [6]): can activate 5-LOX; also recorded: Activatory

CCCCCCCCCCCCCCCCCC(CCC(=O)O)(CCC(=O)O)[N+](=O)[O-] [Lx8, 3-Heptadecyl-3-nitropentane-1,5-dicarboxylic acid]
Effect on 15-LO catalysed oxidation of AA (15-LO [1]): Inhibitory | Effect on 15-LO catalysed oxidation of AA (15-LO [1]; listed as 3-heptadecyl-3-nitropentane-1,5-dicarboxylic acid): selective inhibitors | Effect on 15-LO catalysed oxidation of AA (15-LO [1]; listed as 8a): inhibitory effect | Inhibition pattern on 15-LO (1/v vs 1/[s]) (15-LO [7]): mixed inhibition pattern | Effect on 12-LO catalysed oxidation of AA (12-LO [4]): Activatory | melting point: 102 °C | Effect on 5-LO catalysed oxidation of AA (5-LO [6]): Nil

CC/C=C\C/C=C\C/C=C\CCCCCCCCOCC(=O)O [MP5, (Z,Z,Z)-(octadeca-9,12,15-trienyloxy) acetic acid]
PARP cleavage (PARP): cleavage of PARP | DU145 cell proliferation (DU145 cells): marked inhibition of cell proliferation | Activation of caspases (Caspases 3 and 7; DU145 cells, 4 h (FIG. 5B)): activation of caspases | Induction of apoptosis in DU145 cells (Caspases 3 and 7; concluded from caspase activation and PARP cleavage): induce apoptosis
